Read-outs that look alike come from different tables or passages of the source.
Key:
Type in all cases: cell-based
NCI-H358 cells = assay: Cell proliferation activity of NCI-H358 by CellTiter-Glo reagent; details: for IC50: read-out: IC50 value of cell proliferation inhibitory activity of NCI-H358
Method: NCI-H358 cells in exponential growth phase were digested with trypsin-EDTA, plated in a 96-well plate with 2000-3000 cells per well, and incubated overnight at 37° C. with 5% CO2. […] After the incubation, CellTiter-Glo test reagent with an equal volume was added into each well and the obtained 96-well plate was incubated after shaking. The chemiluminescence values were determined by microplate reader, and the IC50 values of the test compounds inhibiting the proliferation of NCI-H358 cells were fitted and calculated by GraphPad Prism software.
The test method of inhibitory activity was the same as that in Test 3 in “Biological Tests” part.

NCI-H358 = assay: Cell proliferation inhibitory activity on NCI-H358, 3D model test (agarose colony formation); details: Homo sapiens, NCI-H358; 3D agarose colony formation, NBT staining
Method: 100 μl of agarose gel with a high concentration was spread in a 96-well plate as the bottom agarose gel layer. Agarose with a low concentration and growth medium containing cells were mixed and then spread on the bottom agar layer, cooled and solidified, then incubated overnight at 37° C. Mother solutions were prepared from the test compounds by using DMSO, and then subjected to gradient elution with RPMI 1640 growth medium. The solutions of test compounds with different concentrations after gradient elution were added to the 96-well plate comprising an upper layer of agar gel-cells. Solvent control well was set up and the plate was incubated in a CO2 incubator. The drug-containing medium was changed during the incubation period and the cell growth situation was observed. After the incubation, the cells were stained with NBT and the number of cell colony formation was counted, and the IC50 values of the compounds inhibiting cell proliferation were derived.

MIA PaCa-2 cells = assay: Cell proliferation activity of MIA PaCa-2 by CellTiter-Glo reagent; details: Homo sapiens, MIA PaCa-2; 72 h, CellTiter-Glo; read-out: IC50 value of cell proliferation inhibitory activity of the compound on MIA PaCa-2
Method: MIA PaCa-2 cells in exponential growth phase were digested with trypsin-EDTA, plated in a 96-well plate with 2000-3000 cells per well, and incubated overnight at 37° C. with 5% CO2. Mother solutions were prepared from the test compounds by using DMSO, subjected to gradient elution with DMEM growth medium, and then added into the 96-well plate and incubated in an incubator for 72 h at 37° C. with 5% CO2. After the incubation, CellTiter-Glo test reagent with an equal volume was added into each well and the obtained 96-well plate was incubated after shaking. The chemiluminescence values were determined by microplate reader, and the IC50 values of the test compounds inhibiting the proliferation of MIA PaCa-2 cells were fitted and calculated by GraphPad Prism software.
The test method of inhibitory activity was the same as that in Test 2 in “Biological Tests” part.

[1] = Homo sapiens, NCI-H358, test 4, method of test 3

| Compound | anti-cell proliferation activity against KRAS G12C mutant type cells NCI-H358 (in words) (NCI-H358 cells; 72 h, CellTiter-Glo) | IC50 (NCI-H358) [nM] | further results |
| --- | --- | --- | --- |
| C=CC(=[18O])N1C[C@H](C)N(c2nc(=O)n(-c3c(C)ccnc3C(C)C)c3nc(-c4c(F)cccc4C=C)c(Cl)cc23)[C@@H](C)C1 [Compound 3-7MIS] | significant anti-cell proliferation activity |  | IC50 (NCI-H358 cells; [1]): < 50 nM |
| [2H]C([2H])=Cc1ccccc1-c1nc2c(cc1F)c(N1CCN(C(=O)C(=C)F)C[C@@H]1C)nc(=O)n2-c1c(C([2H])([2H])[2H])ccnc1C(C)C [Compound 4-16] |  | < 50 |  |
| C=CC(=O)N1CCN(c2nc(=O)n(-c3c(C)ccnc3C(C)C)c3nc(-c4c(F)cccc4C=C)c(Cl)cc23)[C@@H](C)C1 [Example 3-12P] |  |  | IC50 (NCI-H358 cells; 72 h, CellTiter-Glo, test 3): > 50 nM |
| [2H]C([2H])=Cc1cccc(F)c1-c1nc2c(cc1F)c(N1CCN(C(=O)C=C)C[C@@H]1C)nc(=O)n2-c1c(C([2H])([2H])[2H])ccnc1C(C)C [Compound 4-3] |  | < 50 | IC50 (MIA PaCa-2 cells): < 50 nM |
| C=CC(=[18O])N1CCN(c2nc(=O)n(-c3c(C)ccnc3C(C)C)c3nc(-c4c(F)cccc4C=C)c(Cl)cc23)[C@@H](C)C1 [Compound 3-5MIS] | significant anti-cell proliferation activity |  | IC50 (NCI-H358 cells; [1]): < 50 nM |
| [2H]C([2H])=Cc1cccc(F)c1-c1nc2c(cc1F)c(N1[C@@H](C)CN(C(=O)C(=C)F)C[C@@H]1C)nc(=O)n2-c1c(C([2H])([2H])[2H])ccnc1C(C)C [Compound 4-9] |  | < 50 |  |
| C=CC(=O)N1CCN(c2nc(=O)n(-c3c(CC)ccnc3C(C)C)c3nc(-c4ccccc4C=C)c(Cl)cc23)[C@@H](C)C1 [Compound 3-4MIS] |  |  | IC50 (NCI-H358 cells; 72 h, CellTiter-Glo, test 3): < 50 nM |
| [2H]C([2H])=Cc1cccc(F)c1-c1nc2c(cc1Cl)c(N1[C@@H](C)CN(C(=[18O])C=C)C[C@@H]1C)nc(=O)n2-c1c(C)ccnc1C(C)C [Compound 3-11MIS] | significant anti-cell proliferation activity |  | IC50 (NCI-H358 cells; [1]): < 50 nM |
| C=CC(=[18O])N1CCN(c2nc(=O)n(-c3c(C)ccnc3C(C)C)c3nc(-c4ccccc4C=C)c(Cl)cc23)[C@@H](C)C1 [Compound 3-1MIS] | significant anti-cell proliferation activity |  | IC50 (NCI-H358 cells; [1]): < 50 nM |
| [2H]/C=C(\[2H])C(=O)N1CCN(c2nc(=O)n(-c3c(C)ccnc3C(C)C)c3nc(-c4c(F)cccc4C=C)c(Cl)cc23)[C@@H](C)C1 [Compound 3-51] | significant anti-cell proliferation activity |  | IC50 (NCI-H358 cells; Homo sapiens, NCI-H358, 72 h, 72 h, CellTiter-Glo, test 3): < 50 nM |
| C=CC(=O)N1C[C@H](C)N(c2nc(=O)n(-c3c(C)ccnc3C(C)C)c3nc(-c4c(F)cccc4C=C)c(Cl)cc23)[C@@H](C)C1 [Compound 3-8] |  |  | IC50 (MIA PaCa-2 cells): < 50 nM |
| [2H]C([2H])=Cc1cccc(F)c1-c1nc2c(cc1F)c(N1CCN(C(=O)C(=C)F)C[C@@H]1C)nc(=O)n2-c1c(C(C)C)ccnc1C(C)C [Compound 5-11] |  | < 50 |  |
| [2H]C([2H])=Cc1ccccc1-c1nc2c(cc1F)c(N1CCN(C(=O)C=C)C[C@@H]1C)nc(=O)n2-c1c(C)ccnc1C(C)C [Compound 3-23] |  | < 50 | IC50 (MIA PaCa-2 cells): < 50 nM |
| [2H]C([2H])=Cc1cccc(F)c1-c1nc2c(cc1F)c(N1CCN(C(=O)C(=C)F)C[C@@H]1C)nc(=O)n2-c1c(C([2H])([2H])[2H])ccnc1C(C)C [Compound 4-11] |  | < 50 |  |
| [2H]C([2H])=Cc1ccccc1-c1nc2c(cc1Cl)c(N1CCN(C(=O)C=C)C[C@@H]1C)nc(=O)n2-c1c(C)ccnc1C(C)C [Compound 3-24] |  | < 50 | IC50 (MIA PaCa-2 cells): < 50 nM |
| [2H]C([2H])=Cc1cccc(F)c1-c1nc2c(cc1F)c(N1CCN(C(=O)C(=C)F)C[C@@H]1C)nc(=O)n2-c1c(C)ccnc1C(C)C [Compound 3-27] |  | < 50 |  |

— US20230143751A1, “Aromatic Compound And Use Thereof In Preparing Antineoplastic Drugs” (Shanghai Zheye Biotechnology Co. Ltd., priority 2020, published 2023)
